Reference: patent US11274332B2, “Methods of administering 3,4-diaminopyridine” (SERB SA, priority 2011, dated 2022)

Target: T1, cloned human Kv1.4 potassium channel (Homo sapiens, UniProt P22459)
T1 construct: expressed in transfected cells
Test: PatchXpress inhibition of cloned human Kv1.4 in HEK293 cells (Example 6)
Type: cell-based
Settings: hKv1.4, up to 3000 μM
Description: The objective of this study was to examine the in vitro effects and determine the […] of 3,4-DAP phosphate and the metabolite N-(4-aminopyridin-3-yl) acetamide HCl on the following ion channels: cloned human Kv1.1 potassium channel (encoded by the human KCNA1 gene, expressed in HEK293 cells), cloned human Kv1.2 potassium channel (encoded by the human KCNA2 gene, expressed in HEK293 cells), cloned human Kv1.3 potassium channel (encoded by the human KCNA3 gene, expressed in CHO cells), cloned human Kv1.4 potassium channel (encoded by the human KCNA4 gene, expressed in HEK293 cells), cloned human Kv1.5 potassium channel (encoded by the human KCNA5 gene and expressed in CHO cells), responsible for IKur, ultra-rapid delayed rectifier potassium current.
Chemicals used in solution preparation were purchased from Sigma-Aldrich (St. Louis, Mo.), unless otherwise noted, and were of ACS reagent grade purity or higher. Stock solutions of each test article (100 mM, 30 mM and 1.00 mM 3,4-DAP phosphate and 100 mM N-(4-aminopyridin-3-yl)acetamide) were prepared in sterile water and stored refrigerated. […]
In preparation for a recording session, intracellular solution was loaded into the intracellular compartments of the Sealchip16. […] After establishment of a whole-cell configuration, membrane currents were recorded using dual-channel patch clamp amplifiers in the PatchXpress®. […]

T1 sequence (P22459 whole entry): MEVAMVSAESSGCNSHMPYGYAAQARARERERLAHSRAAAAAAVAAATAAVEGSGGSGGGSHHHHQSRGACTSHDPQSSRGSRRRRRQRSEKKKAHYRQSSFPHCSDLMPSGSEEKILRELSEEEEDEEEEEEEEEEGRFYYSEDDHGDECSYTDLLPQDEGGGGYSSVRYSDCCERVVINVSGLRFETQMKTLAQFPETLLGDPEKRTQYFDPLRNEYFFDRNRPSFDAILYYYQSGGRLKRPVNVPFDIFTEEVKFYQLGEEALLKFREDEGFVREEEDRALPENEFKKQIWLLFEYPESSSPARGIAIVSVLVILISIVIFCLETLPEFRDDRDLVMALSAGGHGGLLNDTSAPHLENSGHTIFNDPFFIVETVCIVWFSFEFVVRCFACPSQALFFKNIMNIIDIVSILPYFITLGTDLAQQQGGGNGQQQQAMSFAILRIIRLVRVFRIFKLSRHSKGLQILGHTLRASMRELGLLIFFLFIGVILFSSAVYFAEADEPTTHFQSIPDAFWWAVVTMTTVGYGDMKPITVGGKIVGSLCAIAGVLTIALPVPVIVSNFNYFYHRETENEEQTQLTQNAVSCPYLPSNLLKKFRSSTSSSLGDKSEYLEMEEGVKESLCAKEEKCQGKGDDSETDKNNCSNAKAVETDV

For `CC(=O)Nc1cnccc1N` [3-N-acetyl amifampridine, N-(4-aminopyridin-3-yl)acetamide], the “activity on K+ channel” value was “inactive” and the “activity on K+ channel” value (listed as N-acetyl metabolite) was “not active”.
